Values of other authors as cited in PMC10368966, “Safety and efficacy of AK0529 in respiratory syncytial virus‐infected infant patients: A phase 2 proof‐of‐concept trial” (Influenza and Other Respiratory Viruses, 2023).

How the values were obtained:
[1] = system: RSV; design: method as in PMID 32201897; details: cited from earlier work
[2] = system: SARS-CoV-2; design: method as in PMID 32423584; details: cell cultures ref 18; cited from earlier work
[3] = system: SARS-CoV-2; design: method as in PMID 32423584; details: patients with severe COVID-19 ref 18; cited from earlier work

| SMILES | length of hospital stay or time to clinical stability [1] | reduction in RSV viral load vs placebo [1] | inhibition of SARS-CoV-2 virus replication [2] | effect on viral load [3] | time to clinical improvement [3] |
| --- | --- | --- | --- | --- | --- |
| CS(=O)(=O)CCCn1c(Cn2c(=O)n(CC(F)(F)F)c3ccncc32)cc2cc(Cl)ccc21 [JNJ‐8678] | no improvements | greater reduction in RSV viral load than with placebo |  |  |  |
| CCC(CC)COC(=O)[C@H](C)N[P@](=O)(OC[C@H]1O[C@@](C#N)(c2ccc3c(N)ncnn23)[C@H](O)[C@@H]1O)Oc1ccccc1 [Remdesivir] |  |  | potent inhibitor | no effect | numerically shorter |
